# From PubChem BioAssay (NCI)
#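 96-well plates; 48 h exposure; 5 concentrations. Endpoints by linear interpolation between flanking doses. Not reached: highest tested concentration assigned. TGI: concentration producing complete growth inhibition.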
# Assays:
# Assay in all cases: NCI tumour cell line growth inhibition, 48 h
# [1] = system: OVCAR-4 ovarian
# [2] = system: IGROV1 ovarian
# [3] = system: TK-10 renal
# [4] = system: NCI-H226 lung
# [5] = system: SNB-19 CNS
# [6] = system: RXF 393 renal
# [7] = system: HCT-15 colon
# [8] = system: 786-0 renal
# [9] = system: OVCAR-8 ovarian
# [10] = system: MALME-3M melanoma
# [11] = system: OVCAR-5 ovarian
# [12] = system: SN12C renal
# [13] = system: MDA-MB-231 breast
# [14] = system: SF-539 CNS
# [15] = system: SK-OV-3 ovarian
# [16] = system: MCF7 breast
# [17] = system: HCC-2998 colon
# [18] = system: BT-549 breast
# [19] = system: EKVX NSCLC
# [20] = system: PC-3 prostate
# [21] = system: COLO 205 colon
# [22] = system: SF-295 CNS
# [23] = system: NCI-H522 lung
# [24] = system: T-47D breast
# [25] = system: OVCAR-3 ovarian
# [26] = system: UACC-257 melanoma
# [27] = system: NCI-H23 lung
# [28] = system: A498 renal
# [29] = system: RPMI-8226 leukemia
# [30] = system: LOX IMVI melanoma
# [31] = system: SK-MEL-5 melanoma
# [32] = system: CAKI-1 renal
# [33] = system: HOP-92 NSCLC
# [34] = system: KM12 colon
# [35] = system: A549 NSCLC
# [36] = system: MOLT-4 leukemia
# [37] = system: SK-MEL-28 melanoma
# [38] = system: MDA-MB-435
# [39] = system: SF-268 CNS
# [40] = system: HT29 colon
# [41] = system: ACHN renal
# [42] = system: DU-145 prostate
# [43] = system: U251 CNS
# [44] = system: HCT-116 colon
# [45] = system: K-562 leukemia
# [46] = system: M14 melanoma
# [47] = system: SW-620 colon
# [48] = system: SR leukemia
# [49] = system: HOP-62 NSCLC
# [50] = system: UACC-62 melanoma
# [51] = system: NCI/ADR-RES ovarian
# [52] = system: UO-31 renal
# [53] = system: CCRF-CEM leukemia
# [54] = system: SK-MEL-2 melanoma
# [55] = system: MDA-N
# [56] = system: NCI-H460 lung
# [57] = system: HL-60(TB) leukemia
# [58] = system: SNB-75 CNS
compound,measurement,setting,value
O=c1c2ccc(Cl)cc2oc2c(CNc3ccc(S(=O)(=O)Nc4nccs4)cc3)cccc12,TGI,[1],> 100 µM
same,TGI,[2],> 100 µM
same,TGI,[3],> 100 µM
same,TGI,[4],> 100 µM
same,TGI,[5],> 100 µM
same,TGI,[6],> 100 µM
same,TGI,[7],> 100 µM
same,TGI,[8],> 100 µM
same,TGI,[9],> 100 µM
same,TGI,[10],> 100 µM
same,TGI,[11],> 100 µM
same,TGI,[12],> 100 µM
same,TGI,[13],> 100 µM
same,TGI,[14],> 100 µM
same,TGI,[15],> 100 µM
same,TGI,[16],> 100 µM
same,TGI,[17],> 100 µM
same,TGI,[18],> 100 µM
same,TGI,[19],> 100 µM
same,TGI,[20],> 100 µM
same,TGI,[21],> 100 µM
same,TGI,[22],> 100 µM
same,TGI,[23],> 100 µM
same,TGI,[24],> 100 µM
same,TGI,[25],> 100 µM
same,TGI,[26],> 100 µM
same,TGI,[27],> 100 µM
same,TGI,[28],> 100 µM
same,TGI,[29],> 100 µM
same,TGI,[30],> 100 µM
same,TGI,[31],> 100 µM
same,TGI,[32],5.51 µM
same,TGI,[33],> 100 µM
same,TGI,[34],> 100 µM
same,TGI,[35],> 100 µM
same,TGI,[36],> 100 µM
same,TGI,[37],> 100 µM
same,TGI,[38],> 100 µM
same,TGI,[39],> 100 µM
same,TGI,[40],> 100 µM
same,TGI,[41],> 100 µM
same,TGI,[42],> 100 µM
same,TGI,[43],> 100 µM
same,TGI,[44],> 100 µM
same,TGI,[45],> 100 µM
same,TGI,[46],> 100 µM
same,TGI,[47],> 100 µM
same,TGI,[48],> 100 µM
same,TGI,[49],> 100 µM
same,TGI,[50],> 100 µM
same,TGI,[51],> 100 µM
same,TGI,[52],> 100 µM
same,TGI,[53],> 100 µM
same,TGI,[54],> 100 µM
same,TGI,[55],> 100 µM
C/C=C1\C(=O)O[C@H]2C/C(C)=C/CC/C(C)=C/CC[C@@]3(C)O[C@@H]3C[C@@H]12,TGI,[2],> 100 µM
same,TGI,[3],> 100 µM
same,TGI,[5],> 100 µM
same,TGI,[6],> 100 µM
same,TGI,[7],> 100 µM
same,TGI,[8],> 100 µM
same,TGI,[9],> 100 µM
same,TGI,[56],> 100 µM
same,TGI,[10],> 100 µM
same,TGI,[11],> 100 µM
same,TGI,[12],> 100 µM
same,TGI,[13],> 100 µM
same,TGI,[14],> 100 µM
same,TGI,[15],> 100 µM
same,TGI,[16],> 100 µM
same,TGI,[17],> 100 µM
same,TGI,[18],> 100 µM
same,TGI,[19],> 100 µM
same,TGI,[20],> 100 µM
same,TGI,[21],> 100 µM
same,TGI,[22],> 100 µM
same,TGI,[24],> 100 µM
same,TGI,[57],> 100 µM
same,TGI,[25],> 100 µM
same,TGI,[26],> 100 µM
same,TGI,[28],> 100 µM
same,TGI,[29],> 100 µM
same,TGI,[31],> 100 µM
same,TGI,[32],> 100 µM
same,TGI,[34],> 100 µM
same,TGI,[35],> 100 µM
same,TGI,[36],> 100 µM
same,TGI,[37],> 100 µM
same,TGI,[38],> 100 µM
same,TGI,[58],> 100 µM
same,TGI,[39],> 100 µM
same,TGI,[40],> 100 µM
same,TGI,[41],> 100 µM
same,TGI,[42],> 100 µM
same,TGI,[43],> 100 µM
same,TGI,[44],> 100 µM
same,TGI,[45],> 100 µM
same,TGI,[46],> 100 µM
same,TGI,[47],> 100 µM
same,TGI,[48],> 100 µM
same,TGI,[49],> 100 µM
same,TGI,[50],> 100 µM
same,TGI,[51],> 100 µM
same,TGI,[52],> 100 µM
same,TGI,[53],> 100 µM
same,TGI,[54],> 100 µM
same,TGI,[55],> 100 µM
